One assay has as its system MDA-MB-231. The experiment in a line: Antiproliferative activity against human MDA-MB-231 cells after 48 hrs by MTT assay. It counts as functional, cell-based. Particulars: MDA-MB-231, 48 h. On the technique in general: Formazan colour is commonly taken as a measure of viable cells.
A further assay relates to MCF7. In words: Antiproliferative activity against human MCF7 cells after 48 hrs by MTT assay. It counts as functional, cell-based. Particulars: MCF7, 48 h.

Structures are written as SMILES. A value given as a limit tells only on which side of the number the result lay.

By IC50 is commonly meant the concentration at which inhibition is half-maximal.

For `CC[C@@H](C(=O)[C@@H](C)[C@@H](O)[C@H](C)[C@@H]1O[C@@H]([C@@H](CC)C(=O)O)CC[C@@H]1C)[C@H]1O[C@]2(C=C[C@@H](OC(=O)Cn3cc(COCc4cn(CC(=O)O[C@@H]5C=C[C@]6(O[C@H]([C@@H](CC)C(=O)[C@@H](C)[C@@H](O)[C@H](C)[C@@H]7O[C@@H]([C@@H](CC)C(=O)O)CC[C@@H]7C)[C@@H](C)C[C@H]6C)O[C@@]56CC[C@@](C)([C@H]5CC[C@](O)(CC)[C@H](C)O5)O6)nn4)nn3)[C@]3(CC[C@@](C)([C@H]4CC[C@](O)(CC)[C@H](C)O4)O3)O2)[C@H](C)C[C@@H]1C`, the IC50 in the assay on MDA-MB-231 is 4.66 µM; in the assay on MCF7 it was 0.74 µM.
The corresponding values for `CC[C@@H](C(=O)[C@@H](C)[C@@H](O)[C@H](C)[C@@H]1O[C@@H]([C@@H](CC)C(=O)OCc2cn(CCCCCCC(=O)O)nn2)CC[C@@H]1C)[C@H]1O[C@]2(C=C[C@@H](O)[C@]3(CC[C@@](C)([C@H]4CC[C@](O)(CC)[C@H](C)O4)O3)O2)[C@H](C)C[C@@H]1C` are 19.6 µM and 16.3 µM.
Take `CC[C@@H](C(=O)[C@@H](C)[C@@H](O)[C@H](C)[C@@H]1O[C@@H]([C@@H](CC)C(=O)O)CC[C@@H]1C)[C@H]1O[C@]2(C=C[C@@H](OC(=O)Cn3cc(CCCC(=O)O)nn3)[C@]3(CC[C@@](C)([C@H]4CC[C@](O)(CC)[C@H](C)O4)O3)O2)[C@H](C)C[C@@H]1C`: the IC50 stood at 1.94 µM in the assay with MDA-MB-231 and 3.66 µM in the assay with MCF7.
The matching figures for `CC[C@@H](C(=O)[C@@H](C)[C@@H](O)[C@H](C)[C@@H]1O[C@@H]([C@@H](CC)C(=O)O)CC[C@@H]1C)[C@H]1O[C@]2(C=C[C@@H](OC(=O)Cn3cc(-c4cccc(N)c4)nn3)[C@]3(CC[C@@](C)([C@H]4CC[C@](O)(CC)[C@H](C)O4)O3)O2)[C@H](C)C[C@@H]1C`: 3.33 µM and 1.65 µM.
As to `CC[C@@H](C(=O)[C@@H](C)[C@@H](O)[C@H](C)[C@@H]1O[C@@H]([C@@H](CC)C(=O)OCc2cn(CCCCC(=O)O)nn2)CC[C@@H]1C)[C@H]1O[C@]2(C=C[C@@H](O)[C@]3(CC[C@@](C)([C@H]4CC[C@](O)(CC)[C@H](C)O4)O3)O2)[C@H](C)C[C@@H]1C`, the figures for the IC50 with MDA-MB-231 and in the assay with MCF7 were 26.2 µM and 19.9 µM, respectively.
The matching figures for `CC[C@@H](C(=O)[C@@H](C)[C@@H](O)[C@H](C)[C@@H]1O[C@@H]([C@@H](CC)C(=O)O)CC[C@@H]1C)[C@H]1O[C@]2(C=C[C@@H](OC(=O)Cn3cc(CO)nn3)[C@]3(CC[C@@](C)([C@H]4CC[C@](O)(CC)[C@H](C)O4)O3)O2)[C@H](C)C[C@@H]1C`: 2.72 µM and 3.34 µM.
The matching figures for `CC[C@@H](C(=O)[C@@H](C)[C@@H](O)[C@H](C)[C@@H]1O[C@@H]([C@@H](CC)C(=O)OCc2cn(CCC(=O)O)nn2)CC[C@@H]1C)[C@H]1O[C@]2(C=C[C@@H](O)[C@]3(CC[C@@](C)([C@H]4CC[C@](O)(CC)[C@H](C)O4)O3)O2)[C@H](C)C[C@@H]1C`: 87.4 µM and 37.3 µM.
In the case of `CC[C@@H](C(=O)[C@@H](C)[C@@H](O)[C@H](C)[C@@H]1O[C@@H]([C@@H](CC)C(=O)O)CC[C@@H]1C)[C@H]1O[C@]2(C=C[C@@H](OC(=O)Cn3cc(CCO)nn3)[C@]3(CC[C@@](C)([C@H]4CC[C@](O)(CC)[C@H](C)O4)O3)O2)[C@H](C)C[C@@H]1C`, the results for the IC50 in the assay with MDA-MB-231 and with MCF7 were 4.72 µM and 2.12 µM, respectively.
Consider `CC[C@@H](C(=O)[C@@H](C)[C@@H](O)[C@H](C)[C@@H]1O[C@@H]([C@@H](CC)C(=O)O)CC[C@@H]1C)[C@H]1O[C@]2(C=C[C@@H](OC(=O)Cn3cc(COCCOC(=O)c4cn(CC(=O)O[C@@H]5C=C[C@]6(O[C@H]([C@@H](CC)C(=O)[C@@H](C)[C@@H](O)[C@H](C)[C@@H]7O[C@@H]([C@@H](CC)C(=O)O)CC[C@@H]7C)[C@@H](C)C[C@H]6C)O[C@@]56CC[C@@](C)([C@H]5CC[C@](O)(CC)[C@H](C)O5)O6)nn4)nn3)[C@]3(CC[C@@](C)([C@H]4CC[C@](O)(CC)[C@H](C)O4)O3)O2)[C@H](C)C[C@@H]1C`, for which the results for the IC50 in the assay on MDA-MB-231 and in the assay on MCF7 were 6.69 µM and 0.6 µM, respectively.
The corresponding values for `CC[C@@H](C(=O)[C@@H](C)[C@@H](O)[C@H](C)[C@@H]1O[C@@H]([C@@H](CC)C(=O)OCc2cn(CCCCCCCCCCC(=O)O)nn2)CC[C@@H]1C)[C@H]1O[C@]2(C=C[C@@H](O)[C@]3(CC[C@@](C)([C@H]4CC[C@](O)(CC)[C@H](C)O4)O3)O2)[C@H](C)C[C@@H]1C` are 4.31 µM and 3.64 µM.
As to `CC[C@@H](C(=O)[C@@H](C)[C@@H](O)[C@H](C)[C@@H]1O[C@@H]([C@@H](CC)C(=O)O)CC[C@@H]1C)[C@H]1O[C@]2(C=C[C@@H](OC(=O)Cn3cc(COCCOCc4cn(CC(=O)O[C@@H]5C=C[C@]6(O[C@H]([C@@H](CC)C(=O)[C@@H](C)[C@@H](O)[C@H](C)[C@@H]7O[C@@H]([C@@H](CC)C(=O)O)CC[C@@H]7C)[C@@H](C)C[C@H]6C)O[C@@]56CC[C@@](C)([C@H]5CC[C@](O)(CC)[C@H](C)O5)O6)nn4)nn3)[C@]3(CC[C@@](C)([C@H]4CC[C@](O)(CC)[C@H](C)O4)O3)O2)[C@H](C)C[C@@H]1C`, the IC50 came out at 4.06 µM in the assay on MDA-MB-231 and 0.91 µM with MCF7.
Turning to `CC[C@@H](C(=O)[C@@H](C)[C@@H](O)[C@H](C)[C@@H]1O[C@@H]([C@@H](CC)C(=O)O)CC[C@@H]1C)[C@H]1O[C@]2(C=C[C@@H](OC(=O)Cn3cc(C(=O)O)nn3)[C@]3(CC[C@@](C)([C@H]4CC[C@](O)(CC)[C@H](C)O4)O3)O2)[C@H](C)C[C@@H]1C`, the IC50 was determined as 6.48 µM in the assay with MDA-MB-231 and 1.86 µM with MCF7.
The corresponding values for `CC[C@@H](C(=O)[C@@H](C)[C@@H](O)[C@H](C)[C@@H]1O[C@@H]([C@@H](CC)C(=O)OCc2cn(CC(=O)O)nn2)CC[C@@H]1C)[C@H]1O[C@]2(C=C[C@@H](O)[C@]3(CC[C@@](C)([C@H]4CC[C@](O)(CC)[C@H](C)O4)O3)O2)[C@H](C)C[C@@H]1C` are more than 100 µM and 13.7 µM.
In the case of `CC[C@@H](C(=O)[C@@H](C)[C@@H](O)[C@H](C)[C@@H]1O[C@@H]([C@@H](CC)C(=O)O)CC[C@@H]1C)[C@H]1O[C@]2(C=C[C@@H](OC(=O)Cn3cc(CCC(=O)O)nn3)[C@]3(CC[C@@](C)([C@H]4CC[C@](O)(CC)[C@H](C)O4)O3)O2)[C@H](C)C[C@@H]1C`, the values for the IC50 with MDA-MB-231 and in the assay on MCF7 were 3.13 µM and 2.03 µM, respectively.
Consider `CC[C@@H](C(=O)[C@@H](C)[C@@H](O)[C@H](C)[C@@H]1O[C@@H]([C@@H](CC)C(=O)O)CC[C@@H]1C)[C@H]1O[C@]2(C=C[C@@H](OC(=O)Cn3cc(CCOC(=O)c4cn(CC(=O)O[C@@H]5C=C[C@]6(O[C@H]([C@@H](CC)C(=O)[C@@H](C)[C@@H](O)[C@H](C)[C@@H]7O[C@@H]([C@@H](CC)C(=O)O)CC[C@@H]7C)[C@@H](C)C[C@H]6C)O[C@@]56CC[C@@](C)([C@H]5CC[C@](O)(CC)[C@H](C)O5)O6)nn4)nn3)[C@]3(CC[C@@](C)([C@H]4CC[C@](O)(CC)[C@H](C)O4)O3)O2)[C@H](C)C[C@@H]1C`, for which the IC50 with MDA-MB-231 was 9.01 µM; in the assay on MCF7 it was 0.71 µM.
The corresponding values for `CC[C@@H](C(=O)[C@@H](C)[C@@H](O)[C@H](C)[C@@H]1O[C@@H]([C@@H](CC)C(=O)OCc2cn(CCCCCC(=O)O)nn2)CC[C@@H]1C)[C@H]1O[C@]2(C=C[C@@H](O)[C@]3(CC[C@@](C)([C@H]4CC[C@](O)(CC)[C@H](C)O4)O3)O2)[C@H](C)C[C@@H]1C` are 44.1 µM and 36.3 µM.
The matching figures for `CC[C@@H](C(=O)[C@@H](C)[C@@H](O)[C@H](C)[C@@H]1O[C@@H]([C@@H](CC)C(=O)O)CC[C@@H]1C)[C@H]1O[C@]2(C=C[C@@H](OC(=O)Cn3cc(COCCO)nn3)[C@]3(CC[C@@](C)([C@H]4CC[C@](O)(CC)[C@H](C)O4)O3)O2)[C@H](C)C[C@@H]1C`: 4.09 µM and 1.23 µM.
Consider `CC[C@@H](C(=O)[C@@H](C)[C@@H](O)[C@H](C)[C@@H]1O[C@@H]([C@@H](CC)C(=O)O)CC[C@@H]1C)[C@H]1O[C@]2(C=C[C@@H](OC(=O)CCl)[C@]3(CC[C@@](C)([C@H]4CC[C@](O)(CC)[C@H](C)O4)O3)O2)[C@H](C)C[C@@H]1C`, for which the IC50 in the assay with MDA-MB-231 turned out to be 5.83 µM; in the assay with MCF7, 1.88 µM.
The matching figures for `CC[C@@H](C(=O)[C@@H](C)[C@@H](O)[C@H](C)[C@@H]1O[C@@H]([C@@H](CC)C(=O)OCc2cn(CCCC(=O)O)nn2)CC[C@@H]1C)[C@H]1O[C@]2(C=C[C@@H](O)[C@]3(CC[C@@](C)([C@H]4CC[C@](O)(CC)[C@H](C)O4)O3)O2)[C@H](C)C[C@@H]1C`: 52.1 µM and 41.2 µM.
In the case of `CC[C@@H](C(=O)[C@@H](C)[C@@H](O)[C@H](C)[C@@H]1O[C@@H]([C@@H](CC)C(=O)O)CC[C@@H]1C)[C@H]1O[C@]2(C=C[C@@H](O)[C@]3(CC[C@@](C)([C@H]4CC[C@](O)(CC)[C@H](C)O4)O3)O2)[C@H](C)C[C@@H]1C` [SALINOMYCIN], the values for the IC50 in the assay with MDA-MB-231 and in the assay on MCF7 were 6.42 µM and 2.98 µM, respectively.

The values above are taken from ChEMBL document CHEMBL3992501, “Synthesis and biological evaluation of salinomycin triazole analogues as anticancer agents” (Eur J Med Chem, 2017).
